US4948813A, “Benzylketone phospholipase A2 inhibitors” (E. I. Du Pont de Nemours and Company, priority 1989, dated 1990)
Structures can show the parent of a compound that is named as a salt.

Tested on: inflammation induced by tetradecanoyl phorbol acetate (TPA)
Experiment: TPA Inflammation Inhibition Test
Format: in vivo, mice
Conditions: mouse ear edema, topical, 100 mg/ear, four hours
Method: The TPA model mimics many of the inflammatory change which occur in human skin diseases such as psoriasis, since elevated levels of inflammatory arachidonic acid metabolites are found and an influx of polymorphonuclear leukocytes is observed. The test procedure used to evaluate the compounds of Formula (I) is as follows: the test compound (100 mg/ear) is applied to both ears of mice in an appropriate vehicle, such as acetone, and then the inflammatory stimulus (TPA) is applied to the right ear. Four hours later, the edema is measured by removing standard size discs from the ears using a biopsy punch. A control group of animals receives TPA in vehicle applied to the right ear, and vehicle alone to the left ear.

| Structure (SMILES) | % Inhibition of Control Swelling |
| --- | --- |
| CC(C)c1ccc2c(c1)CCC1C(C)(CNCCC(=O)c3ccc(F)cc3)CCCC21C.Cl (stereo not shown) [Example 52, 3-([1,4a-Dimethyl-1,2,3,4,4a,9,10,10a-octahydro-7-(1-methylethyl)-1-phenanthrenyl]methylamino)-1-(4-fluorophenyl)-1-propanone Hydrochloride] | 40% |
| COc1ccc(CNCCC(=O)c2ccc(F)cc2)c2ccccc12 [Example 7, 1-(4-Fluorophenyl)-3-[(4-methoxy-1-naphthaIenyl)-methylamino]-1-propanone Hydrochloride] | 21% |
| CCCCCCC(C)OCCCC(=O)c1ccc(F)cc1 (stereo not drawn) [Example 37, 1-(4-Fluorophenyl)-4-(d-1-methylheptyloxy)-1-butanone] | 20% |
| CC(C)c1ccc2c(c1)CCC1C(C)(CNCCC(=O)c3ccccc3)CCCC21C (stereo not shown) [Example 21, 1-Phenyl-3-([4a-dimethyl-7-(1-methylethyl)-1,2,3,4,4a,9,10,10aoctahydro-1-phenanthren-1-yl]-methylamino)-1-propanone 4-Methylbenzenesulfonate] | 31% |
